{
  "source": "patent US20140294972A1",
  "about": "“Oral Suspension” (NOVA BIO-PHARMA TECHNOLOGIES LIMITED, priority 2011, published 2014)",
  "origin": "cited, not measured here",
  "details": "neutral pH",
  "data": [
    {"smiles": "Sc1ncnc2nc[nH]c12", "note": "[6-MP, 3,7-dihydropurine-6-thione]", "values": [
      {"measurement": "water solubility", "value": "about 6.85 mg/mL"}
    ]}
  ]
}
